Measurements as given in US20250122218A1, “MODULATORS OF CYSTIC FIBROSIS TRANSMEMBRANE CONDUCTANCE REGULATOR” (Vertex Pharmaceuticals Incorporated, priority 2022, published 2025).

What follows are compounds tested against T1, CFTR in F508del/MF-HBE cells (Homo sapiens, UniProt P13569, DEL508-508) (assay: Ussing chamber assay of CFTR-mediated short-circuit currents (identification of potentiator compounds)). Settings: potentiator incubated 18-24 hours at 37° C. in combination with 10 μM corrector, in the presence of 20% human serum, CFTR-mediated ISC.
T1 construct: human bronchial epithelial (HBE) cells derived from CF subjects heterozygous for F508del and a minimal function CFTR mutation; endogenous in cells; host or cells: primary human bronchial epithelial cells from CF subjects (F508del/MF-HBE)
Format: cell-based
How it was run: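 F508del/MF-HBE cultures were preincubated 18-24 h at 37° C with potentiator plus 10 μM of a fixed corrector compound in 20% human serum; compounds were kept present during measurement. ISC was recorded under voltage clamp (0 mV, 37° C, amiloride apical) and taken as the 20 μM forskolin peak minus the current after inhibitor cocktail.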

T1 sequence (P13569 with tags, fused parts or gaps DEL508-508): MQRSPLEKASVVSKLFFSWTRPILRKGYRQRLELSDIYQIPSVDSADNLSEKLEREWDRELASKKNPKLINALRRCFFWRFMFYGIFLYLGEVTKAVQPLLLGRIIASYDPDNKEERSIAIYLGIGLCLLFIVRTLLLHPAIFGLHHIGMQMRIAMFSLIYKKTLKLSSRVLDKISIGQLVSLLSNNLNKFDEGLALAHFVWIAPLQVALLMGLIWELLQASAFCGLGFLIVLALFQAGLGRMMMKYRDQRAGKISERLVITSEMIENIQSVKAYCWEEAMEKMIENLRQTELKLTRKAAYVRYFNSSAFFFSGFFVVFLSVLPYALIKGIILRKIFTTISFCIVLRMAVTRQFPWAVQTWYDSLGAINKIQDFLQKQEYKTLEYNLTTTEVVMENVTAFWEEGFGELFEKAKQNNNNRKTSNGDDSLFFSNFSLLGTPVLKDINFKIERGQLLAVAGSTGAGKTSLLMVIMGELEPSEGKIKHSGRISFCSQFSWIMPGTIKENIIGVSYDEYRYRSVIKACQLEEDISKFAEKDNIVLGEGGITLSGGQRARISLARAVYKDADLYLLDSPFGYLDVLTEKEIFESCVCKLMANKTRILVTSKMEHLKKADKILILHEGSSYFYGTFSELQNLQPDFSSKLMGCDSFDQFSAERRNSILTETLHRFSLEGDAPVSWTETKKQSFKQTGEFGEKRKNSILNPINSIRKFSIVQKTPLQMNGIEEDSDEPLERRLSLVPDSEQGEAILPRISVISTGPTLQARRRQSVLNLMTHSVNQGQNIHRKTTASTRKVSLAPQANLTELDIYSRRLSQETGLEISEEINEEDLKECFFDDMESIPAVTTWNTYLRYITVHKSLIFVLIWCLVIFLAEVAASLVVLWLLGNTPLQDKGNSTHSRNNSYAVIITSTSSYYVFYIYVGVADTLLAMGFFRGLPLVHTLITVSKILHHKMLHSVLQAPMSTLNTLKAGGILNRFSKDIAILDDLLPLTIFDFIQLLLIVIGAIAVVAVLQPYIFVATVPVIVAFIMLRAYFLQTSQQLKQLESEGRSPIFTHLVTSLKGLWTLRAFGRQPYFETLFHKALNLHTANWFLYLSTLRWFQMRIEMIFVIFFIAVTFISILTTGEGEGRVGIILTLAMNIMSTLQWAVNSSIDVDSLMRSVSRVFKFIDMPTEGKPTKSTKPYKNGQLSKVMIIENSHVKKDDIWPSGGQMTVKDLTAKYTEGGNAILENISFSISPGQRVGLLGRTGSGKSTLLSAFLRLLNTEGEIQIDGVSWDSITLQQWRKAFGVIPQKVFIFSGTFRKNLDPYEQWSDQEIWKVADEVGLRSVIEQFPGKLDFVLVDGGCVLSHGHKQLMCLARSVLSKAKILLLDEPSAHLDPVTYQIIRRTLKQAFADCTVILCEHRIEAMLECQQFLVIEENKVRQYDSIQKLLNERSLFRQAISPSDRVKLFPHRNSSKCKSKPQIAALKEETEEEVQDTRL

Row | EC50 | SMILES
1 | < 0.5 µM | CC(C)CN1CCCCC(O)(C(F)(F)F)C2=NN=C(O2)c2nc(c(C(F)(F)F)cc2N)C1=O (single isomer, unassigned) [Compound 232, 16-amino-6-hydroxy-11-isobutyl-6,14-bis(trifluoromethyl)-18-oxa-3,4,11,17-tetrazatricyclo [11.3.1.12,5] octadeca-1(17),2,4,13,15-pentaen-12-one]
2 | < 0.5 µM | CC(C)CN1CCCCC(O)(C(F)(F)F)C2=NN=C(O2)c2nc(c(C(F)(F)F)cc2N)C1=O (single isomer, unassigned) [Compound 233, 16-amino-6-hydroxy-11-isobutyl-6,14-bis(trifluoromethyl)-18-oxa-3,4,11,17-tetrazatricyclo [11.3.1.12,5] octadeca-1(17),2,4,13,15-pentaen-12-one]
3 | < 0.5 µM | Nc1cc(C(F)(F)F)c2nc1-c1nnc(o1)C(O)(C(F)(F)F)CCCCN(Cc1ccc(OC(F)(F)F)cc1)C2=O (single isomer, unassigned) [Compound 234, 16-amino-6-hydroxy-11-[[4-(trifluoromethoxy)phenyl]methyl]-6,14-bis(trifluoromethyl)-18-oxa-3,4,11,17-tetrazatricyclo [11.3.1.12,5] octadeca-1(17),2,4,13,15-pentaen-12-one]
4 | < 0.5 µM | Nc1cc(C(F)(F)F)c2nc1-c1nnc(o1)C(O)(C(F)(F)F)CCCCN(Cc1ccc(OC(F)(F)F)cc1)C2=O (single isomer, unassigned) [Compound 235, 16-amino-6-hydroxy-11-[[4-(trifluoromethoxy)phenyl]methyl]-6,14-bis(trifluoromethyl)-18-oxa-3,4,11,17-tetrazatricyclo [11.3.1.12,5] octadeca-1(17),2,4,13,15-pentaen-12-one]
5 | < 0.5 µM | Nc1cc(C(F)(F)F)c2nc1-c1nnc(o1)C(O)(C(F)(F)F)CCCCCN(Cc1ccc(Br)cc1)C2=O (single isomer, unassigned) [Compound 236, 17-amino-12-[(4-bromophenyl)methyl]-6-hydroxy-6,15-bis(trifluoromethyl)-19-oxa-3,4,12,18-tetrazatricyclo [12.3.1.12,5] nonadeca-1(18),2,4,14,16-pentaen-13-one]
6 | < 0.5 µM | Nc1cc(C(F)(F)F)c2nc1-c1nnc(o1)C(O)(C(F)(F)F)CCCCN(Cc1ccccc1)C2=O (single isomer, unassigned) [Compound 238, 16-amino-11-benzyl-6-hydroxy-6,14-bis(trifluoromethyl)-18-oxa-3,4,11,17-tetrazatricyclo [11.3.1.12,5] octadeca-1(17),2,4,13,15-pentaen-12-one]
7 | < 0.5 µM | Nc1cc(C(F)(F)F)c2nc1-c1nnc(o1)C(O)(C(F)(F)F)CCCCN(Cc1ccccc1)C2=O (single isomer, unassigned) [Compound 239, 16-amino-11-benzyl-6-hydroxy-6,14-bis(trifluoromethyl)-18-oxa-3,4,11,17-tetrazatricyclo [11.3.1.12,5] octadeca-1(17),2,4,13,15-pentaen-12-one]
8 | < 0.5 µM | Nc1cc(C(F)(F)F)c2nc1-c1nnc(o1)C(O)(C(F)(F)F)CCCCNC2=O (single isomer, unassigned) [Compound 249, 16-amino-6-hydroxy-6,14-bis(trifluoromethyl)-18-oxa-3,4,11,17-tetrazatricyclo [11.3.1.12,5] octadeca-1(17),2,4,13,15-pentaen-12-one]
9 | > 1 µM | Nc1cc(C(F)(F)F)c2nc1-c1nnc(o1)C(O)(C(F)(F)F)CCCCNC2=O (single isomer, unassigned) [Compound 250, 16-amino-6-hydroxy-6,14-bis(trifluoromethyl)-18-oxa-3,4,11,17-tetrazatricyclo [11.3.1.12,5] octadeca-1(17),2,4,13,15-pentaen-12-one]
10 | < 0.5 µM | Nc1cc(C(F)(F)F)c2nc1-c1nnc(o1)[C@@](O)(C(F)(F)F)CCCCCCC2=O [Compound 6, (6R)-17-amino-6-hydroxy-6,15-bis(trifluoromethyl)-19-oxa-3,4,18-triazatricyclo[12.3.1.12,5]nonadeca-1(18),2,4,14,16-pentaen-13-one]
11 | > 1 µM | Cn1cc2c(n1)-c1nc(c(N)cc1C(F)(F)F)-c1nnc(o1)C(O)(C(F)(F)F)CCCCC2 (centres unmarked) [Compound 24, 20-Amino-14-methyl-6,18-bis(trifluoromethyl)-22-oxa-3,4,14,15,21-pentaazatetracyclo[15.3.1.12,5.012,16]docosa-1(21),2,4,12,15,17,19-heptaen-6-ol]
12 | < 0.5 µM | Nc1cc(C(F)(F)F)c2nc1-c1nnc(o1)[C@@](O)(C(F)(F)F)CCCC(F)(F)CCC2=O [Compound 38, (6R)-17-amino-10,10-difluoro-6-hydroxy-6,15-bis(trifluoromethyl)-19-oxa-3,4,18-triazatricyclo[12.3.1.12,5]nonadeca-1(18),2,4,14,16-pentaen-13-one]
13 | 0.5 to 1 µM | Nc1cc(C(F)(F)F)c2nc1-c1nnc(o1)[C@](O)(C(F)(F)F)CCCC(F)(F)CCC2=O [Compound 39, (6S)-17-amino-10,10-difluoro-6-hydroxy-6,15-bis(trifluoromethyl)-19-oxa-3,4,18-triazatricyclo[12.3.1.12,5]nonadeca-1(18),2,4,14,16-pentaen-13-one]
14 | < 0.5 µM | Nc1cc(C(F)(F)F)c2nc1-c1nnc(o1)[C@@](O)(C(F)(F)F)CCC(F)(F)CCCC2=O [Compound 40, (6R)-17-amino-9,9-difluoro-6-hydroxy-6,15-bis(trifluoromethyl)-19-oxa-3,4,18-triazatricyclo[12.3.1.12,5]nonadeca-1(18),2,4,14,16-pentaen-13-one]
15 | < 0.5 µM | Nc1cc(C(F)(F)F)c2nc1-c1nnc(o1)[C@](O)(C(F)(F)F)CCC(F)(F)CCCC2=O [Compound 41, (6S)-17-amino-9,9-difluoro-6-hydroxy-6,15-bis(trifluoromethyl)-19-oxa-3,4,18-triazatricyclo[12.3.1.12,5]nonadeca-1(18),2,4,14,16-pentaen-13-one]
16 | < 0.5 µM | Nc1cc(C(F)(F)F)c2nc1-c1nnc(o1)[C@@](O)(C(F)(F)F)CCCC(=O)CCC2(F)F [Compound 42, (6R)-17-Amino-13,13-difluoro-6-hydroxy-6,15-bis(trifluoromethyl)-19-oxa-3,4,18-triazatricyclo[12.3.1.12,5]nonadeca-1(18),2,4,14,16-pentaen-10-one]
17 | < 0.5 µM | Nc1cc(C(F)(F)F)c2nc1-c1nnc(o1)[C@@](O)(C(F)(F)F)CCC(=O)CCCC2(F)F [Compound 43, (6R)-17-amino-13,13-difluoro-6-hydroxy-6,15-bis(trifluoromethyl)-19-oxa-3,4,18-triazatricyclo[12.3.1.12,5]nonadeca-1(18),2,4,14,16-pentaen-9-one]
18 | < 0.5 µM | Nc1cc(C(F)(F)F)c2nc1-c1nnc(o1)[C@@](O)(C(F)(F)F)CC(F)(F)CCCCC2=O [Compound 44, (6R)-17-amino-8,8-difluoro-6-hydroxy-6,15-bis(trifluoromethyl)-19-oxa-3,4,18-triazatricyclo[12.3.1.12,5]nonadeca-1(18),2,4,14,16-pentaen-13-one]
19 | < 0.5 µM | CC1(C)CCCCC[C@](O)(C(F)(F)F)C2=NN=C(O2)c2nc(c(C(F)(F)F)cc2N)C1=O [Compound 45, (6R)-17-amino-6-hydroxy-12,12-dimethyl-6,15-bis(trifluoromethyl)-19-oxa-3,4,18-triazatricyclo[12.3.1.12,5]nonadeca-1(18),2,4,14,16-pentaen-13-one]
20 | < 0.5 µM | CC1(C)CCCCC[C@@](O)(C(F)(F)F)C2=NN=C(O2)c2nc(c(C(F)(F)F)cc2N)C1=O [Compound 46, (6S)-17-amino-6-hydroxy-12,12-dimethyl-6,15-bis(trifluoromethyl)-19-oxa-3,4,18-triazatricyclo[12.3.1.12,5]nonadeca-1(18),2,4,14,16-pentaen-13-one]
21 | < 0.5 µM | CC1(C)CCCC[C@](O)(C(F)(F)F)C2=NN=C(O2)c2nc(c(C(F)(F)F)cc2N)C(=O)C1 [Compound 47, (6R)-17-amino-6-hydroxy-11,11-dimethyl-6,15-bis(trifluoromethyl)-19-oxa-3,4,18-triazatricyclo[12.3.1.12,5]nonadeca-1(18),2,4,14,16-pentaen-13-one]
22 | < 0.5 µM | Nc1cc(C(F)(F)F)c2nc1-c1nnc(o1)[C@@](O)(C(F)(F)F)CCCCCC1(CCC1)C2=O [Compound 48, (6R)-17-amino-6-hydroxy-6,15-bis(trifluoromethyl)spiro[19-oxa-3,4,18-triazatricyclo[12.3.1.12,5]nonadeca-1(18),2,4,14,16-pentaene-12,1′-cyclobutane]-13-one]
23 | < 0.5 µM | Nc1cc(C(F)(F)F)c2nc1-c1nnc(o1)[C@@](O)(C(F)(F)F)CCCCCC1(CC1)C2=O [Compound 49, (6R)-17-amino-6-hydroxy-6,15-bis(trifluoromethyl)spiro[19-oxa-3,4,18-triazatricyclo[12.3.1.12,5]nonadeca-1(18),2,4,14,16-pentaene-12,1′-cyclopropane]-13-one]
24 | < 0.5 µM | CC1(C)CCCCC[C@](O)(C(F)(F)F)C2=NN=C(O2)c2nc(c(C(F)(F)F)cc2N)C1 [Compound 50, (6R)-17-amino-12,12-dimethyl-6,15-bis(trifluoromethyl)-19-oxa-3,4,18-triazatricyclo[12.3.1.12,5]nonadeca-1(18),2,4,14,16-pentaen-6-ol]
25 | < 0.5 µM | Nc1cc(C(F)(F)F)c2nc1-c1nnc(o1)C(O)(C(F)(F)F)CCCCN(Cc1ccccc1)C(=O)C2 (centres unmarked) [Compound 51, 17-amino-11-benzyl-6-hydroxy-6,15-bis(trifluoromethyl)-19-oxa-3,4,11,18-tetrazatricyclo[12.3.1.12,5]nonadeca-1(18),2,4,14,16-pentaen-12-one]
26 | > 1 µM | CC(C)N1CCCCC(O)(C(F)(F)F)C2=NN=C(O2)c2nc(c(C(F)(F)F)cc2N)CC1=O (centres unmarked) [Compound 52, 17-amino-6-hydroxy-11-isopropyl-6,15-bis(trifluoromethyl)-19-oxa-3,4,11,18-tetrazatricyclo[12.3.1.12,5]nonadeca-1(18),2,4,14,16-pentaen-12-one]
